Where two headings read alike, the source gives them in different places.
Tested on: M. mycetomatis genome strain MM55
Assay: CLSI M38-A2 based in vitro susceptibility screening (XTT or resazurin), growth at fixed concentration
Type: cell-based, Madurella mycetomatis
Conditions: Madurella mycetomatis; for Percent fungal survival at 100 µM: read-out: Percentage survival at 100um, 100 uM A (second replicate column)
[1] = mean of replicates, read-out: Percentage survival at 25um, 25 uM mean
[2] = replicate A, read-out: Percentage survival at 25um, 25 um A
[3] = replicate B, read-out: Percentage survival at 25um, 25 uM B
[4] = replicate C, read-out: Percentage survival at 25um, 25 uM C
[5] = mean of replicates, read-out: Percentage survival at 100um, 100 uM mean
[6] = replicate 1, read-out: Percentage survival at 100um, 100 uM A
[7] = replicate 2, read-out: Percentage survival at 100um, 100 uM A
[8] = replicate 3, read-out: Percentage survival at 100um, 100 uM A
[9] = mean of three replicates, read-out: Percentage survival at 25um, 25 uM mean
[10] = mean of three replicates, read-out: Percentage survival at 100um, 100 uM mean
[11] = replicate 1, read-out: Percentage survival at 100um, 100 uM A (first replicate column)
[12] = replicate 3, read-out: Percentage survival at 100um, 100 uM A (third replicate column)
[13] = mean, read-out: Percentage survival at 25um, 25 uM mean
[14] = mean, read-out: Percentage survival at 100um, 100 uM mean
[15] = replicate (first column), read-out: Percentage survival at 100um, 100 uM A
[16] = replicate (second column), read-out: Percentage survival at 100um, 100 uM A
[17] = replicate (third column), read-out: Percentage survival at 100um, 100 uM A
[18] = mean of replicates, MM55, read-out: Percentage survival at 25um, 25 uM mean
[19] = replicate A, MM55, read-out: Percentage survival at 25um, 25 um A
[20] = replicate B, MM55, read-out: Percentage survival at 25um, 25 uM B
[21] = replicate C, MM55, read-out: Percentage survival at 25um, 25 uM C
[22] = mean of replicates, MM55, read-out: Percentage survival at 100um, 100 uM mean
[23] = replicate 1, MM55, read-out: Percentage survival at 100um, 100 uM A
[24] = replicate 2, MM55, read-out: Percentage survival at 100um, 100 uM A
[25] = replicate 3, MM55, read-out: Percentage survival at 100um, 100 uM A

For `O=C(O)CCNC(=O)c1ccccc1` [MMV002224], the activity at 25 µM [1] was 93.9%, the activity at 25 µM [2] was 90.2% and the activity at 25 µM [3] was 96.2%. The activity at 25 µM [4] was 95.4%, the activity at 100 µM [5] was 89.7% and the activity at 100 µM [6] was 96%. The activity at 100 µM [7] was 83.6% and the activity at 100 µM [8] was 89.5%.

`Cc1onc(-c2ccccc2)c1-c1ccc(S(N)(=O)=O)cc1` [MMV002260] gave an activity at 25 µM [9] of 81.4%, an activity at 25 µM [2] of 85.1% and an activity at 25 µM [3] of 77.3%. For the same compound, the activity at 25 µM [4] was 81.8%, the activity at 100 µM [10] was 99.5% and the activity at 100 µM [11] was 101%. The Percent fungal survival at 100 µM (replicate 2) was 120% and the activity at 100 µM [12] was 76.9%.

With `Cc1ncc([N+](=O)[O-])n1CC(C)O` (stereo not shown) [MMV002287] the activity at 25 µM [9] was 111%, the activity at 25 µM [2] was 140% and the activity at 25 µM [3] was 90.9%. The activity at 25 µM [4] was 103%, the activity at 100 µM [10] was 100% and the activity at 100 µM [11] was 89.4%. For the same compound, the Percent fungal survival at 100 µM (replicate 2) was 122% and the activity at 100 µM [12] was 90.2%.

With `OC(Cn1cncn1)(Cn1cncn1)c1ccc(F)cc1F` [MMV002337] the activity at 25 µM [13] was 113%, the activity at 25 µM [2] was 137% and the activity at 25 µM [3] was 52.7%. For the same compound, the activity at 25 µM [4] was 150%, the activity at 100 µM [14] was 1.38% and the activity at 100 µM [15] was -3.44%. For the same compound, the activity at 100 µM [16] was 4.59% and the activity at 100 µM [17] was 3.01%.

`CCn1cc(C(=O)O)c(=O)c2cc(F)c(N3CCNC(C)C3)c(F)c21` (stereo not shown) [MMV002350] gave an activity at 25 µM [18] of 91.3%, an activity at 25 µM [19] of 97.9% and an activity at 25 µM [20] of 93.8%. The activity at 25 µM [21] was 82.3%, the activity at 100 µM [22] was 89% and the activity at 100 µM [23] was 92.8%. The activity at 100 µM [24] was 92.2% and the activity at 100 µM [25] was 82.2%.

`C[C@@H]1O[C@@H]1P(=O)(O)O` [MMV002354] showed an activity at 25 µM [1] of 88.5%, an activity at 25 µM [2] of 88.5% and an activity at 25 µM [3] of 86.5%. The activity at 25 µM [4] was 90.5%, the activity at 100 µM [5] was 88.2% and the activity at 100 µM [6] was 81.5%. For the same compound, the activity at 100 µM [7] was 93.4% and the activity at 100 µM [8] was 89.6%.

`NC[C@H]1O[C@H](O[C@H]2[C@H](O)[C@@H](O[C@H]3O[C@H](CO)[C@@H](O)[C@H](N)[C@H]3O)[C@H](N)C[C@@H]2N)[C@H](N)C[C@@H]1O` [MMV002459] showed an activity at 25 µM [1] of 86.6%, an activity at 25 µM [2] of 96.5% and an activity at 25 µM [3] of 69%. It also gave an activity at 25 µM [4] of 94.3%, an activity at 100 µM [5] of 63.3% and an activity at 100 µM [6] of 89.3%. The activity at 100 µM [7] was 40% and the activity at 100 µM [8] was 60.6%.

`CSc1ccc2c(c1)C(N1CCN(C)CC1)Cc1ccccc1S2` (stereo not shown) [MMV002505] was tested, and the activity at 25 µM [18] was 38.4%, the activity at 25 µM [19] was 7.34% and the activity at 25 µM [20] was 101%. For the same compound, the activity at 25 µM [21] was 6.61%, the activity at 100 µM [22] was 3.79% and the activity at 100 µM [23] was 3.82%. The activity at 100 µM [24] was -0.0923% and the activity at 100 µM [25] was 7.64%.

With `CC[C@@H]1C(=O)OC[C@@H]1Cc1cncn1C` [MMV002516] the activity at 25 µM [1] was 82.7%, the activity at 25 µM [2] was 90.3% and the activity at 25 µM [3] was 90.6%. It also gave an activity at 25 µM [4] of 67.2%, an activity at 100 µM [5] of 73.8% and an activity at 100 µM [6] of 82.4%. For the same compound, the activity at 100 µM [7] was 85% and the activity at 100 µM [8] was 53.9%.

Compound `CO/N=C(\C(=O)N[C@@H]1C(=O)N2C(C(=O)OCOC(=O)C(C)(C)C)=C(/C=C\c3scnc3C)CS[C@H]12)c1csc(N)n1` [MMV002560] has an activity at 25 µM [1] of 117%, an activity at 25 µM [2] of 84.9% and an activity at 25 µM [3] of 78.8%. It also gave an activity at 25 µM [4] of 186%, an activity at 100 µM [5] of 77.5% and an activity at 100 µM [6] of 72.7%. The activity at 100 µM [7] was 83.7% and the activity at 100 µM [8] was 76%.

With `COC(=O)Nc1nc2ccc([S+]([O-])c3ccccc3)cc2[nH]1` (stereo not shown) [MMV002565, Oxfendazole, reference compound] the activity at 25 µM [13] was 87.4%, the activity at 25 µM [2] was 91.3% and the activity at 25 µM [3] was 87.4%. For the same compound, the activity at 25 µM [4] was 83.6%, the activity at 100 µM [14] was 76.1% and the activity at 100 µM [15] was 83.9%. For the same compound, the activity at 100 µM [16] was 71.1% and the activity at 100 µM [17] was 73.2%.
